According to ChEMBL document CHEMBL4004883, “Biologically active perspective synthesis of heteroannulated 8-nitroquinolines with green chemistry approach” (Bioorg Med Chem Lett, 2017):
Values after ≈ are worked out from the molar mass of the structure shown. Active and inactive are the calls of the source. No cut-off for these calls is given here.

Legend:
[1] = Antioxidant activity assessed as total antioxidant capacity measured as ascorbic acid equivalents at 100 ug/ml after 90 mins by phosphomolybdenum method; format: functional
[2] = Antioxidant activity assessed as assessed as ferric ion reducing activity by measuring absorbance at 700 nm at 100 ug/ml after 20 mins by spectrophotometric method; format: functional
A549 [3] = assay: Induction of apoptosis in human A549 cells assessed as chromatin condensation at IC50 by DAPI staining-based fluorescence microscopic method; format: functional, cell-based
A549 [4] = assay: Induction of apoptosis in human A549 cells assessed as cell shrinkage at IC50 after 48 hrs by acridine orange/ ethidium bromide staining-based fluorescence microscopic method; format: functional
Staphylococcus aureus [5] = assay: Antibacterial activity against Staphylococcus aureus MTCC 96 at 100 ug incubated for 24 hrs under dark condition by agar well diffusion method; format: functional; conditions: MTCC 96, 24 h, read-out: IZ
Bacillus subtilis [6] = assay: Antibacterial activity against Bacillus subtilis MTCC 121 at 100 ug incubated for 24 hrs under dark condition by agar well diffusion method; format: functional; conditions: MTCC 121, 24 h, read-out: IZ
[7] = Antioxidant activity assessed as assessed as ferric ion reducing activity by measuring absorbance at 700 nm at 60 ug/ml after 20 mins by spectrophotometric method; format: functional
Escherichia coli [8] = assay: Antibacterial activity against Escherichia coli MTCC 1652 incubated for 24 hrs under dark condition by microwell dilution method; format: functional; conditions: MTCC 1652, 24 h
MCF7 [9] = assay: Induction of apoptosis in human MCF7 cells assessed as cell shrinkage at IC50 after 48 hrs by acridine orange/ ethidium bromide staining-based fluorescence microscopic method; format: functional
MCF7 [10] = assay: Induction of apoptosis in human MCF7 cells assessed as chromatin condensation at IC50 by DAPI staining-based fluorescence microscopic method; format: functional, cell-based
Staphylococcus aureus [11] = assay: Antibacterial activity against Staphylococcus aureus MTCC 96 incubated for 24 hrs under dark condition by microwell dilution method; format: functional; conditions: MTCC 96, 24 h
A549 [12] = assay: Induction of apoptosis in human A549 cells assessed as cell blebbing at IC50 after 48 hrs by acridine orange/ ethidium bromide staining-based fluorescence microscopic method; format: functional
[13] = Antioxidant activity assessed as assessed as ferric ion reducing activity by measuring absorbance at 700 nm at 20 ug/ml after 20 mins by spectrophotometric method; format: functional
[14] = Antioxidant activity assessed as total antioxidant capacity measured as ascorbic acid equivalents at 60 ug/ml after 90 mins by phosphomolybdenum method; format: functional
[15] = Antioxidant activity assessed as DPPH radical scavenging activity after 20 mins by UV/VIS Spectrophotometric method; format: functional
Bacillus subtilis [16] = assay: Antibacterial activity against Bacillus subtilis MTCC 121 incubated for 24 hrs under dark condition by microwell dilution method; format: functional; conditions: MTCC 121, 24 h
Escherichia coli [17] = assay: Antibacterial activity against Escherichia coli MTCC 1652 at 100 ug incubated for 24 hrs under dark condition by agar well diffusion method; format: functional; conditions: MTCC 1652, 24 h, read-out: IZ
A549 [18] = assay: Induction of apoptosis in human A549 cells assessed as nuclear fragmentation at IC50 by DAPI staining-based fluorescence microscopic method; format: functional, cell-based
[19] = Antioxidant activity assessed as total antioxidant capacity measured as ascorbic acid equivalents at 20 ug/ml after 90 mins by phosphomolybdenum method; format: functional
Pseudomonas aeruginosa [20] = assay: Antibacterial activity against Pseudomonas aeruginosa MTCC 102 at 100 ug incubated for 24 hrs under dark condition by agar well diffusion method; format: functional; conditions: MTCC 102, 24 h, read-out: IZ
MCF7 [21] = assay: Induction of apoptosis in human MCF7 cells assessed as cell blebbing at IC50 after 48 hrs by acridine orange/ ethidium bromide staining-based fluorescence microscopic method; format: functional
Pseudomonas aeruginosa [22] = assay: Antibacterial activity against Pseudomonas aeruginosa MTCC 102 incubated for 24 hrs under dark condition by microwell dilution method; format: functional; conditions: MTCC 102, 24 h
MCF7 [23] = assay: Cytotoxicity against human MCF7 cells assessed as decrease in cell viability after 48 hrs by MTT assay; format: functional, cell-based; conditions: MCF7, 48 h
A549 [24] = assay: Cytotoxicity against human A549 cells assessed as decrease in cell viability after 48 hrs by MTT assay; format: functional, cell-based; conditions: A549, 48 h
MCF7 [25] = assay: Induction of apoptosis in human MCF7 cells assessed as nuclear fragmentation at IC50 by DAPI staining-based fluorescence microscopic method; format: functional, cell-based

Compound	MIC (Escherichia coli [8]) [µg/mL]	MIC (Staphylococcus aureus [11]) [µg/mL]	IC50 [15] [µg/mL]	MIC (Bacillus subtilis [16]) [µg/mL]	MIC (Pseudomonas aeruginosa [22]) [µg/mL]	Activity [1] [µgequiv/ml]	OD [2]	zone of inhibition at 100 µg/disc (Staphylococcus aureus [5]) [mm]	zone of inhibition at 100 µg/disc (Bacillus subtilis [6]) [mm]	OD [7]	OD [13]	Activity [14] [µgequiv/ml]	zone of inhibition at 100 µg/disc (Escherichia coli [17]) [mm]	Activity [19] [µgequiv/ml]	zone of inhibition at 100 µg/disc (Pseudomonas aeruginosa [20]) [mm]	IC50 (MCF7 [23]) [µM]	IC50 (A549 [24]) [µM]	further results
N#CC1=C(N)OC2=C(CNc3c2cccc3[N+](=O)[O-])C1c1cccs1 (stereo not given)	17 (≈ 48.2 µM)	5 (≈ 14.2 µM)	194.81 (≈ 553 µM)	5 (≈ 14.2 µM)	37 (≈ 105 µM)	11.8	0.134	23	29	0.118	0.098	5.72	22	2.19	20	14.3	15.4	Activity (A549 [3]): Active; Activity (A549 [4]): Active; Activity (MCF7 [9]): Active; Activity (MCF7 [10]): Active; Activity (A549 [12]): Active; Activity (A549 [18]): Active; Activity (MCF7 [21]): Active; Activity (MCF7 [25]): Active
COc1ccc(C2C3CNc4c(cccc4[N+](=O)[O-])C3=NN2c2ccccc2)cc1OC (stereo not given)	34 (≈ 79 µM)	12.5 (≈ 29 µM)	169.91 (≈ 395 µM)	12.5 (≈ 29 µM)	55.5 (≈ 129 µM)	12.3	0.155	19	19	0.102	0.084	8.12	18	4.04	16	58.5	46.4	–
O=[N+]([O-])c1cccc2c1NCC1C2=NN(c2ccccc2)C1c1ccccc1 (stereo not given)	60 (≈ 162 µM)	60 (≈ 162 µM)	146.85 (≈ 396 µM)	60 (≈ 162 µM)	150 (≈ 405 µM)	14.9	0.096	8	8	0.08	0.075	10.8	12	5.18	14	53.4	59.8	–
Cc1ccc(C2C3CNc4c(cccc4[N+](=O)[O-])C3=NN2c2ccccc2)cc1 (stereo not given)	80.5 (≈ 209 µM)	50 (≈ 130 µM)	185.06 (≈ 481 µM)	50 (≈ 130 µM)	200 (≈ 520 µM)	10.2	0.145	12	12	0.096	0.082	5.23	10	3.33	8	72.8	45.8	–

Now from value to compound, other results behind:

MIC (Escherichia coli [8]) [µg/mL]	MIC (Staphylococcus aureus [11]) [µg/mL]	IC50 [15] [µg/mL]	MIC (Bacillus subtilis [16]) [µg/mL]	MIC (Pseudomonas aeruginosa [22]) [µg/mL]	Compound	Activity [1] [µgequiv/ml]	OD [2]	zone of inhibition at 100 µg/disc (Staphylococcus aureus [5]) [mm]	zone of inhibition at 100 µg/disc (Bacillus subtilis [6]) [mm]	OD [7]	OD [13]	Activity [14] [µgequiv/ml]	zone of inhibition at 100 µg/disc (Escherichia coli [17]) [mm]	Activity [19] [µgequiv/ml]	zone of inhibition at 100 µg/disc (Pseudomonas aeruginosa [20]) [mm]	IC50 (MCF7 [23]) [µM]	IC50 (A549 [24]) [µM]	further results
42.5 (≈ 105 µM)	40 (≈ 98.4 µM)	122.13 (≈ 301 µM)	20 (≈ 49.2 µM)	150 (≈ 369 µM)	COc1ccc(C2C(C#N)=C(N)OC3=C2CNc2c3cccc2[N+](=O)[O-])c(OC)c1 (stereo not given)	14.2	0.162	14	15	0.112	0.08	9.89	15	4.79	13	51.2	44.6	–
17 (≈ 45.2 µM)	10 (≈ 26.6 µM)	65.42 (≈ 174 µM)	12.5 (≈ 33.2 µM)	37 (≈ 98.3 µM)	COc1ccc(C2C(C#N)=C(N)OC3=C2CNc2c3cccc2[N+](=O)[O-])cc1 (stereo not given)	23.2	0.368	21	20	0.211	0.109	15.1	20	7.55	21	16.8	35.6	–
